{
  "source": "ChEMBL document CHEMBL5634084",
  "about": "“Design and optimization of selective and potent CDK9 inhibitors with flavonoid scaffold for the treatment of acute myeloid leukemia” (Eur J Med Chem, 2023)",
  "key": {"[1]": {"biological_target": "CDK9/cyclin T1 (Homo sapiens) (UniProt O60563+P50750)", "test": "Inhibition of CDK9/CyclinT1 (unknown origin) at 100 nM by ADP-Glo assay relative to control", "format": "protein-complex assay"}, "MV4-11 [2]": {"tested_on": "MV4-11", "test": "Antiproliferative activity against human MV4-11 cells assessed as reduction in cell viability measured after 72 hrs", "format": "functional, cell-based", "settings": "MV4-11, 72 h"}, "[3]": {"test": "Inhibition of CDK1/CyclinA2 (unknown origin) by ADP-Glo assay", "design": "species or system Homo sapiens"}, "[4]": {"biological_target": "Myosin-IIIb (Homo sapiens) (UniProt Q8WXR4)", "sequence (Q8WXR4 whole entry, the tested form may be a part)": "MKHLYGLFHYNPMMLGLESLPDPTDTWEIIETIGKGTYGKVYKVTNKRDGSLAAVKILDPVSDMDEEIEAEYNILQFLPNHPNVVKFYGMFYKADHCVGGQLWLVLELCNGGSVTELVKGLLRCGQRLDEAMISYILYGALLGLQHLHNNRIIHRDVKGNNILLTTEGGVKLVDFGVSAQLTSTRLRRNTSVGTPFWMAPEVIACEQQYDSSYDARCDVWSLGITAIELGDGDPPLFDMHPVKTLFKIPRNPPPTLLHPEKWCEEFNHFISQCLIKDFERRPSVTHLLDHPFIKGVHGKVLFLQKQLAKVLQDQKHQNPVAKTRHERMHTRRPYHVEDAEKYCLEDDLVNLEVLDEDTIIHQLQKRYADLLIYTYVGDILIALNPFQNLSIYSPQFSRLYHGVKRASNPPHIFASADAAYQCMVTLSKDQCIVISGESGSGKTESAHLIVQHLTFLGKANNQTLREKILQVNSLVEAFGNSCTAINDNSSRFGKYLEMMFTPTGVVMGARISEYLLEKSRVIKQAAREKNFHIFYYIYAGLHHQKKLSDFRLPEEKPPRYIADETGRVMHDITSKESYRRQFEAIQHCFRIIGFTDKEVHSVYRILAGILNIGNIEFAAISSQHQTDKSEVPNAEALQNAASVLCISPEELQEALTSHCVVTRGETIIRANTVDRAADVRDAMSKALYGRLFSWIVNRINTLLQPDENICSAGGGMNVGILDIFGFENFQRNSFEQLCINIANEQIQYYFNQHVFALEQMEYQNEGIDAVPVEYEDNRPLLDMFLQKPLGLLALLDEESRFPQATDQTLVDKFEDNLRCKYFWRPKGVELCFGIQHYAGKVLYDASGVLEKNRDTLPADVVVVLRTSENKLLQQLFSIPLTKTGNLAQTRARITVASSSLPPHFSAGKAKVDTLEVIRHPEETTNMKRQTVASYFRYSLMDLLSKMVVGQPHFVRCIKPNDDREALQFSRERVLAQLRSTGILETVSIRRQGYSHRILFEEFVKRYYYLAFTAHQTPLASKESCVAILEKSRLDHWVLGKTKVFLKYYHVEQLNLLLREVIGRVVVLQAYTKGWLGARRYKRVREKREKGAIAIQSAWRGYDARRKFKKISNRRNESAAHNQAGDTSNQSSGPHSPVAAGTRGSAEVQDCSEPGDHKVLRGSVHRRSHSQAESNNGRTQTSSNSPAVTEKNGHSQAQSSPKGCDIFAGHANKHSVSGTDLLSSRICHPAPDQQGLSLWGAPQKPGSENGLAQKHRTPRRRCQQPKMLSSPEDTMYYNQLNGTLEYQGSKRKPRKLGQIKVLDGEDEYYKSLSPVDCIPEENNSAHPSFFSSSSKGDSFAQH", "test": "Inhibition of wild type partial length human MYO3B (1 to 357 residues) expressed in bacterial expression system at 1 uM by KINOMEscan analysis"}, "[5]": {"biological_target": "MAP kinase-interacting serine/threonine-protein kinase 2 (Homo sapiens) (UniProt Q9HBH9)", "sequence (Q9HBH9 whole entry, looked up, the tested form may be a part)": "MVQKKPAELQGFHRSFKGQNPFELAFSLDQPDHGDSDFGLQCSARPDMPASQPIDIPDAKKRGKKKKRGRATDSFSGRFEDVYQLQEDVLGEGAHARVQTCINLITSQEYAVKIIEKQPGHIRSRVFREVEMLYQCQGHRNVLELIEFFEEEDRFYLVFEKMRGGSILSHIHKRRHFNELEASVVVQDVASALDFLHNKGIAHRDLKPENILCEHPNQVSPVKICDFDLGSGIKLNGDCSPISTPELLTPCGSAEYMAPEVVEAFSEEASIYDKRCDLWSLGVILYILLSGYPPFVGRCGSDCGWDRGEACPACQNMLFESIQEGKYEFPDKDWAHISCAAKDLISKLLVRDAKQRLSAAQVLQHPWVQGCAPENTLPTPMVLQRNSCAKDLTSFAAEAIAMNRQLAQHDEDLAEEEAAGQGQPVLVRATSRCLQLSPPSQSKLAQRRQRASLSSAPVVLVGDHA", "test": "Inhibition of wild type partial length human MKNK2 (63 to 388 residues) expressed in mammalian expression system at 1 uM by KINOMEscan analysis"}, "[6]": {"biological_target": "NUAK family SNF1-like kinase 2 (Homo sapiens) (UniProt Q9H093)", "sequence (Q9H093 whole entry, the tested form may be a part)": "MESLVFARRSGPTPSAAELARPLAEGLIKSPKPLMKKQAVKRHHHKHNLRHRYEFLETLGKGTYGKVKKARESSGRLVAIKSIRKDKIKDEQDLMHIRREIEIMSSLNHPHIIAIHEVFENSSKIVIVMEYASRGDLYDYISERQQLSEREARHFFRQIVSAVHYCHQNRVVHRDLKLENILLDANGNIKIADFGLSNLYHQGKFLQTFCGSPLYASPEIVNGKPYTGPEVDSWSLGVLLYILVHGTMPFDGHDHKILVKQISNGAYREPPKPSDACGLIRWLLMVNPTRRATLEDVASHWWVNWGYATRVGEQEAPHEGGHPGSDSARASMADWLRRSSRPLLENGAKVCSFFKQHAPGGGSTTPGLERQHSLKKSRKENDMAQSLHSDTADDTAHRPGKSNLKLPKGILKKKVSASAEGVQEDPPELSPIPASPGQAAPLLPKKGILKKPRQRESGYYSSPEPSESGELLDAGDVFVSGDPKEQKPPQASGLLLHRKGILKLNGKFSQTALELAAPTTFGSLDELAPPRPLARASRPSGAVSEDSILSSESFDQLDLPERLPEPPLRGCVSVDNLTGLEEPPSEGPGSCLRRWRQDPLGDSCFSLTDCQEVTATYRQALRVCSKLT", "test": "Inhibition of wild type partial length human SNARK (22 to 333 residues) expressed in mammalian expression system at 1 uM by KINOMEscan analysis"}, "[7]": {"test": "Metabolic stability of the compound in rat liver microsomes at 10 uM measured for 60 mins in presence of NADPH by LC-MS/MS analysis", "format": "ADME, Microsome", "settings": "1 h"}, "[8]": {"test": "Metabolic stability of the compound in rat plasma at 10 uM measured for 60 mins by LC-MS/MS analysis", "format": "ADME, cell-free", "settings": "1 h"}, "[9]": {"test": "Solubility of the compound in water at pH 7.4", "format": "physicochemical"}, "THP-1": {"tested_on": "THP-1", "test": "Antiproliferative activity against human THP-1 cells assessed as reduction in cell viability measured after 72 hrs", "format": "functional, cell-based", "settings": "THP-1, 72 h"}, "MCF7": {"tested_on": "MCF7", "test": "Antiproliferative activity against human MCF7 cells assessed as reduction in cell viability measured after 72 hrs", "format": "functional, cell-based", "settings": "MCF7, 72 h"}, "BT-549": {"tested_on": "BT-549", "test": "Antiproliferative activity against human BT-549 cells assessed as reduction in cell viability measured after 72 hrs", "format": "functional, cell-based", "settings": "BT-549, 72 h"}, "HepG2": {"tested_on": "HepG2", "test": "Antiproliferative activity against human HepG2 cells assessed as reduction in cell viability measured after 72 hrs", "format": "functional, cell-based", "settings": "HepG2, 72 h"}, "HCT-116": {"tested_on": "HCT-116", "test": "Antiproliferative activity against human HCT-116 cells assessed as reduction in cell viability measured after 72 hrs", "format": "functional, cell-based", "settings": "HCT-116, 72 h"}, "HT-29": {"tested_on": "HT-29", "test": "Antiproliferative activity against human HT-29 cells assessed as reduction in cell viability measured after 72 hrs", "format": "functional, cell-based", "settings": "HT-29, 72 h"}, "SW480": {"tested_on": "SW480", "test": "Antiproliferative activity against human SW480 cells assessed as reduction in cell viability measured after 72 hrs", "format": "functional, cell-based", "settings": "SW480, 72 h"}, "A549": {"tested_on": "A549", "test": "Antiproliferative activity against human A549 cells assessed as reduction in cell viability measured after 72 hrs", "format": "functional, cell-based", "settings": "A549, 72 h"}, "[10]": {"test": "Cytotoxicity against human L02 cells assessed as reduction in cell viability measured after 72 hrs", "format": "toxicity, cell-based"}, "[11]": {"test": "Toxicity in BALB/c mouse xenografted with human MV4-11 cells assessed as effect on body weight at 7.5 to 15 mg/kg, iv qd", "format": "organism-based", "settings": "in vivo, dose 7.5-15 mg/kg"}, "[12]": {"biological_target": "Cyclin-dependent kinase 9 (Homo sapiens) (UniProt P50750)", "sequence (P50750 whole entry)": "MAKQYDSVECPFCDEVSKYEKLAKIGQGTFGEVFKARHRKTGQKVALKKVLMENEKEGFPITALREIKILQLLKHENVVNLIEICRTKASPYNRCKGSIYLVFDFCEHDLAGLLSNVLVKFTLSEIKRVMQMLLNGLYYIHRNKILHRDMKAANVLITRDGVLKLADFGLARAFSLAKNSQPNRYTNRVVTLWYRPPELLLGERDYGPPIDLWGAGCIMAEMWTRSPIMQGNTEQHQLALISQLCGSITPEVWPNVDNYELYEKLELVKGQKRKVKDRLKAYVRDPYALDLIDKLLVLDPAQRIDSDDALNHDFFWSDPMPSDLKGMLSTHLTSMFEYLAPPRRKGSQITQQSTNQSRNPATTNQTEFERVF", "test": "Inhibition of CDK9 in human MV4-11 cells assessed as reduction in Mcl-1 protein expression incubated for 12 hrs by western blot analysis", "format": "cell-based", "settings": "dose 0.1-4 µM"}, "MV4-11 [13]": {"tested_on": "MV4-11", "test": "Induction of apoptosis in human MV4-11 cells assessed as viable cells at 0.1 uM incubated for 24 hrs by AnnexinV-FITC/PI staining based flow cytometry (reference value: 93.4%)", "format": "functional", "settings": "read-out: Activity"}, "MV4-11 [14]": {"tested_on": "MV4-11", "test": "Induction of apoptosis in human MV4-11 cells assessed as late apoptotic cells at 0.1 uM incubated for 24 hrs by AnnexinV-FITC/PI staining based flow cytometry (reference value: 5.21%)", "format": "functional"}, "MV4-11 [15]": {"tested_on": "MV4-11", "test": "Induction of apoptosis in human MV4-11 cells assessed as viable cells at 0.5 uM incubated for 24 hrs by AnnexinV-FITC/PI staining based flow cytometry (reference value: 93.4%)", "format": "functional", "settings": "read-out: Activity"}, "MV4-11 [16]": {"tested_on": "MV4-11", "test": "Induction of apoptosis in human MV4-11 cells assessed as early apoptotic cells at 1 uM incubated for 24 hrs by AnnexinV-FITC/PI staining based flow cytometry (reference value: 1.42%)", "format": "functional"}, "MV4-11 [17]": {"tested_on": "MV4-11", "test": "Induction of apoptosis in human MV4-11 cells assessed as necrotic cells at 1 uM incubated for 24 hrs by AnnexinV-FITC/PI staining based flow cytometry (reference value: 0%)", "format": "functional"}, "MV4-11 [18]": {"tested_on": "MV4-11", "test": "Induction of apoptosis in human MV4-11 cells assessed as necrotic cells at 2 uM incubated for 24 hrs by AnnexinV-FITC/PI staining based flow cytometry (reference value: 0%)", "format": "functional"}, "MV4-11 [19]": {"tested_on": "MV4-11", "test": "Induction of apoptosis in human MV4-11 cells assessed as early apoptotic cells at 4 uM incubated for 24 hrs by AnnexinV-FITC/PI staining based flow cytometry (reference value: 1.42%)", "format": "functional"}, "MV4-11 [20]": {"tested_on": "MV4-11", "test": "Induction of apoptosis in human MV4-11 cells assessed as late apoptotic cells at 4 uM incubated for 24 hrs by AnnexinV-FITC/PI staining based flow cytometry (reference value: 5.21%)", "format": "functional"}, "MV4-11 [21]": {"tested_on": "MV4-11", "test": "Induction of apoptosis in human MV4-11 cells assessed as increase in cleaved PARP-1 protein expression incubated for 24 hrs by western blot analysis", "format": "functional, cell-based", "settings": "dose 0.1-4 µM"}, "MV4-11 [22]": {"tested_on": "MV4-11", "test": "Induction of cell cycle arrest in human MV4-11 cells assessed as accumulation of cells at G0/G1 phase at 0.1 uM incubated fo 36 hrs by propidium iodide staining based flow cytometry (reference value: 64%)", "format": "functional"}, "MV4-11 [23]": {"tested_on": "MV4-11", "test": "Induction of cell cycle arrest in human MV4-11 cells assessed as accumulation of cells at S phase at 0.1 uM incubated fo 36 hrs by propidium iodide staining based flow cytometry (reference value: 26.5%)", "format": "functional"}, "MV4-11 [24]": {"tested_on": "MV4-11", "test": "Induction of cell cycle arrest in human MV4-11 cells assessed as accumulation of cells at G0/G1 phase at 0.2 uM incubated fo 36 hrs by propidium iodide staining based flow cytometry (reference value: 64%)", "format": "functional"}, "MV4-11 [25]": {"tested_on": "MV4-11", "test": "Induction of cell cycle arrest in human MV4-11 cells assessed as accumulation of cells at G2/M phase at 0.2 uM incubated fo 36 hrs by propidium iodide staining based flow cytometry (reference value: 9.5%)", "format": "functional"}, "MV4-11 [26]": {"tested_on": "MV4-11", "test": "Induction of cell cycle arrest in human MV4-11 cells assessed as accumulation of cells at G0/G1 phase at 0.4 uM incubated fo 36 hrs by propidium iodide staining based flow cytometry (reference value: 64%)", "format": "functional"}, "MV4-11 [27]": {"tested_on": "MV4-11", "test": "Induction of cell cycle arrest in human MV4-11 cells assessed as accumulation of cells at G2/M phase at 0.4 uM incubated fo 36 hrs by propidium iodide staining based flow cytometry (reference value: 9.5%)", "format": "functional"}, "MV4-11 [28]": {"tested_on": "MV4-11", "test": "Induction of cell cycle arrest in human MV4-11 cells assessed as accumulation of cells at G0/G1 phase at 0.8 uM incubated fo 36 hrs by propidium iodide staining based flow cytometry (reference value: 64%)", "format": "functional"}, "MV4-11 [29]": {"tested_on": "MV4-11", "test": "Induction of cell cycle arrest in human MV4-11 cells assessed as accumulation of cells at S phase at 0.8 uM incubated fo 36 hrs by propidium iodide staining based flow cytometry (reference value: 26.5%)", "format": "functional"}},
  "data": [
    {"smiles": "COc1cc(O)c2c(=O)cc(-c3ccc(N4CCN(C)CC4)cc3)oc2c1C1=CCN(C)CC1", "values": [
      {"measurement": "inhibition", "setting": "[1]", "value": 98.9, "unit": "%"},
      {"measurement": "IC50", "setting": "MV4-11 [2]", "value": 0.06, "unit": "µM"},
      {"measurement": "IC50", "setting": "[3]", "value": 4.18, "unit": "µM"},
      {"measurement": "inhibition", "setting": "[4]", "value": 0, "unit": "%"},
      {"measurement": "inhibition", "setting": "[5]", "value": 1.6, "unit": "%"},
      {"measurement": "inhibition", "setting": "[6]", "value": 6.2, "unit": "%"},
      {"measurement": "Stability", "setting": "[7]", "value": "Stable"},
      {"measurement": "Stability", "setting": "[8]", "value": "Stable"},
      {"measurement": "solubility", "setting": "[9]", "value": 120, "unit": "µg/mL"},
      {"measurement": "IC50", "setting": "THP-1", "value": 0.45, "unit": "µM"},
      {"measurement": "IC50", "setting": "MCF7", "value": 0.14, "unit": "µM"},
      {"measurement": "IC50", "setting": "BT-549", "value": 0.21, "unit": "µM"},
      {"measurement": "IC50", "setting": "HepG2", "value": 0.41, "unit": "µM"},
      {"measurement": "IC50", "setting": "HCT-116", "value": 0.02, "unit": "µM"},
      {"measurement": "IC50", "setting": "HT-29", "value": 1.06, "unit": "µM"},
      {"measurement": "IC50", "setting": "SW480", "value": 3.45, "unit": "µM"},
      {"measurement": "IC50", "setting": "A549", "value": 0.7, "unit": "µM"},
      {"measurement": "IC50 at 72 h", "setting": "[10]", "value": 10.6, "unit": "µM"},
      {"measurement": "Activity", "setting": "[11]", "value": "Non-Toxic"},
      {"measurement": "inhibition", "setting": "[12]", "value": "Dose-Dependent Effect"},
      {"measurement": "viability at 0.1 µM", "setting": "MV4-11 [13]", "value": 91.5, "unit": "%"},
      {"measurement": "Activity", "setting": "MV4-11 [14]", "value": 6.98, "unit": "%"},
      {"measurement": "viability at 0.5 µM", "setting": "MV4-11 [15]", "value": 87.8, "unit": "%"},
      {"measurement": "Activity", "setting": "MV4-11 [16]", "value": 9.95, "unit": "%"},
      {"measurement": "Activity", "setting": "MV4-11 [17]", "value": 0.01, "unit": "%"},
      {"measurement": "Activity", "setting": "MV4-11 [18]", "value": 0.11, "unit": "%"},
      {"measurement": "Activity", "setting": "MV4-11 [19]", "value": 70.3, "unit": "%"},
      {"measurement": "Activity", "setting": "MV4-11 [20]", "value": 21.3, "unit": "%"},
      {"measurement": "Activity", "setting": "MV4-11 [21]", "value": "Dose-Dependent Effect"},
      {"measurement": "Activity", "setting": "MV4-11 [22]", "value": 70.5, "unit": "%"},
      {"measurement": "Activity", "setting": "MV4-11 [23]", "value": 21, "unit": "%"},
      {"measurement": "Activity", "setting": "MV4-11 [24]", "value": 73.9, "unit": "%"},
      {"measurement": "Activity", "setting": "MV4-11 [25]", "value": 7.1, "unit": "%"},
      {"measurement": "Activity", "setting": "MV4-11 [26]", "value": 81.2, "unit": "%"},
      {"measurement": "Activity", "setting": "MV4-11 [27]", "value": 6, "unit": "%"},
      {"measurement": "Activity", "setting": "MV4-11 [28]", "value": 84.2, "unit": "%"},
      {"measurement": "Activity", "setting": "MV4-11 [29]", "value": 10.8, "unit": "%"}
    ]}
  ]
}
